Measurements as given in PMC10363979, “Effects of bergapten on the pharmacokinetics of macitentan in rats both in vitro and in vivo” (Frontiers in Pharmacology, 2023).
Read-outs that look alike come from different tables or passages of the source. Blank lines part the entries; values can stand above or below the compound they belong to.

Experiments:
[1] = Pharmacokinetic interaction between BP and macitentan in rats (plasma macitentan and ACT-132577); assay type: in vivo, Sprague-Dawley rats; details: for Cmax / Tmax / AUC(0-inf) / AUC(0-t) / CL/F / MRT last / MRT inf / half-life: Sprague-Dawley, rat, plasma, po, 20 mg/kg, macitentan in plasma, macitentan 20 mg/kg oral; for CL/F: read-out: CLz/F (converted); for MRT last: read-out: MRT(0-t); for MRT inf: read-out: MRT(0-∞); for half-life: read-out: t1/2z (converted)
Description: (§1) The concentrations of macitentan and ACT-132577 were determined by UPLC-MS/MS, which consisted of an Acquity I-class UPLC system (Waters Corp., Milford, MA, United States) and a Xevo TQD triple quadrupole mass spectrometer (Waters Corporation, Milford, MA, United States) equipped with an electrospray ionization source. Chromatographic separation was performed on an Acquity UPLC BEH C18 column (2.1 × 100 mm, 1.7 μm) at 40°C. The mobile phase was composed of acetonitrile (solvent A) and water containing 0.1% formic acid (solvent B, pH 2.74). The gradient condition of mobile phases was set with a flow rate of 0.4 mL/min as follows: 0–0.5 min, 20% A; 0.5–1 min, 70% A; 1–2 min, 95% A; 2–2.6 min, 20% A. Positive ion and selective multiple reaction monitoring (SRM) modes were used for quantitative analysis with the precursor to product ion transitions of m/z 588.9→203.4 for macitentan, 546.9→200.6 for ACT-132577, and 285.0→193.0 for diazepam. The cone voltage and collision voltage were 28V, 14 V for macitentan, 26V, 28 V for ACT-132577, and 35V, 30 V for diazepam. The mass spectrometry parameters of the source temperature, desolvation temperature, cone gas flow rate, and desolvation gas flow rate were 150°C, 500°C, 50 L/h, and 1000 L/h, respectively.
Twelve Sprague-Dawley rats were randomly assigned to two groups. BP (10 mg/kg) was continuously administered daily to rats in the experimental group for 7 days, whereas the 0.5% CMC-Na was orally administered once a day to rats in the control group. Rats were fasted overnight before dosing, with free access to water. Macitentan (20 mg/kg) was intragastrically administered 30 min after the last dose of BP or 0.5% CMC-Na on the seventh day. Blood samples (300 μL) were collected from the tail vein into 1.5 mL Eppendorf tubes containing 10 μL heparin sodium at the time points of 0.083, 0.25, 0.5, 1, 2, 3, 4, 6, 8, 12, 24, and 36 h after macitentan administration. Plasma was obtained after centrifugation of the blood samples at 4,000 rpm for 10 min and stored at −80°C for further analysis. Before UPLC-MS/MS analysis, 100 μL plasma was mixed with 200 μL acetonitrile and 30 μL diazepam (500 ng/mL) and then fractionated at 13,000 rpm for 5 min at 4°C. A 150 μL sample of the supernatant was collected for analysis.
All assays were performed in triplicate, and the results are expressed as mean ± standard deviation. The pharmacokinetic parameters of elimination half-life (t1/2), area under the plasma concentration-time curve (AUC), maximal plasma concentration (Cmax), time to peak plasma concentration, plasma clearance (CLz/F), apparent volume of distribution, and mean residence time were calculated using a non-compartment model with DAS software (version 3.2.8, Lishui People’s Hospital, China). Data analysis, statistical comparisons, and graphs were generated using GraphPad Prism software (version 7.0; GraphPad Software Inc., San Diego, CA, United States). Student’s t-test of variance following the least significant difference method was used for comparisons between the control and experimental groups. Statistical significance was set at p < 0.05.

[2] = cited from earlier work
[3] = design: method as in Sidharta et al, 2015; details: estimated; ref Sidharta et al, 2015; cited from earlier work
[4] = Stability of macitentan and ACT-132577 in rat plasma (UPLC-MS/MS method validation); assay type: in vitro ADME
Description: as §1
Method validation, including accuracy, precision, recovery, matrix effects and stability, was conducted in accordance with the guidelines of the FDA and the European Medicines Agency.

[5] = Inhibition of macitentan metabolism (ACT-132577 formation) by bergapten and Michaelis-Menten kinetics in rat liver microsomes; assay type: in vitro ADME; details: rat, rat liver microsomes, pH 7.4; RLMs
Description: as §1
(§2) The effects of BP on macitetan metabolism in vitro were investigated using RLMs, HLMs, and rCYP3A4. And, the formation of ACT-132577 was considered as an indicator of inhibitory effect. The 200 μL incubation system contained NADPH (1 mM), potassium phosphate buffer (100mM, pH = 7.4), macitentan, BP, and RLMs (0.3 mg/mL), HLMs (0.2 mg/mL), or rCYP3A4 (0.13 mg/mL). Firstly, a series concentration of macitentan with 1, 2.5, 5, 10, 25, 50 and 100 μM were included in the reaction buffer to determine the Km and Vmax values. Then, a series concentration of BP following 0, 0.01, 0.1, 1, 5, 10, 50 and 100 μM were used for the determination of IC50 value of BP against macitentan. […] The system was pre-incubated at 37°C for 5 min, and 10 μL NADPH was added to initiate the reaction. After incubation for 30 min at 37°C, 200 μL ice-cold acetonitrile and 30 μL diazepam (500 ng/mL) were added to terminate the reaction. The samples were centrifuged at 13,000 rpm for 5 min, and the supernatant fraction (150 μL) was collected for UPLC-MS/MS analysis.

[6] = test system: Rat liver microsomes (RLMs); assay: as above; assay type: in vitro ADME; details: RLMs
Description: as §1, §2

[7] = design: method as in Li et al, 2014; details: rat, 3 mg/kg bergapten; ref Li et al, 2014; cited from earlier work
[8] = target: T1, recombinant human CYP3A4 (rCYP3A4) (Homo sapiens, UniProt P08684); assay: Inhibition of macitentan metabolism (ACT-132577 formation) by bergapten and Michaelis-Menten kinetics in recombinant human CYP3A4; assay type: in vitro ADME
T1 construct: made in house
Description: as §1
as §2, with “After incubation for 30 min at 37°C, 200 μL ice-cold acetonitrile and 30 μL diazepam (500 ng/mL) were added to terminate the reaction. The samples were centrifuged at 13,000 rpm for 5 min, and the supernatant fraction (150 μL) was collected for UPLC-MS/MS analysis.” left out

[9] = target: macitentan metabolism (formation of ACT-132577) (Homo sapiens, UniProt P08684); assay: Inhibition of macitentan metabolism (ACT-132577 formation) by bergapten and Michaelis-Menten kinetics in human liver microsomes; assay type: in vitro ADME; details: human, pH 7.4
Description: as §1
as §2, with “After incubation for 30 min at 37°C, 200 μL ice-cold acetonitrile and 30 μL diazepam (500 ng/mL) were added to terminate the reaction. The samples were centrifuged at 13,000 rpm for 5 min, and the supernatant fraction (150 μL) was collected for UPLC-MS/MS analysis.” left out

[10] = target: human liver microsomes (HLMs) (Homo sapiens, UniProt P08684); assay: as above; assay type: in vitro ADME
Description: as §1
as §2, with “After incubation for 30 min at 37°C, 200 μL ice-cold acetonitrile and 30 μL diazepam (500 ng/mL) were added to terminate the reaction. The samples were centrifuged at 13,000 rpm for 5 min, and the supernatant fraction (150 μL) was collected for UPLC-MS/MS analysis.” left out

[11] = test system: macitentan metabolism (formation of ACT-132577); assay: Inhibition of macitentan metabolism (ACT-132577 formation) by bergapten and Michaelis-Menten kinetics in rat liver microsomes; assay type: in vitro ADME; details: rat, rat liver microsomes, pH 7.4, probe macitentan; RLMs 0.3 mg/mL, 30 min, 37°C; read-out: IC50 of BP on macitentan metabolism
Description: as §1, §2

[12] = Plasma Cmax of bergapten in rat (literature); assay type: in vivo; details: 3 mg/kg bergapten, converted from ng/mL, ref Li et al, 2014
ET receptor = test system: ET receptor; design: method as in Iglarz et al, 2008; details: ref Iglarz et al, 2008, cited from earlier work; for Pharmacological activity of metabolite: Figure 1
[13] = control group (0.5% CMC-Na 7 days)
[14] = experimental group (BP 10 mg/kg daily 7 days)
[15] = with BP 10 mg/kg vs without, p < 0.05
[16] = single dose macitentan, ref Atsmon et al, 2013

T1 sequence (P08684 whole entry): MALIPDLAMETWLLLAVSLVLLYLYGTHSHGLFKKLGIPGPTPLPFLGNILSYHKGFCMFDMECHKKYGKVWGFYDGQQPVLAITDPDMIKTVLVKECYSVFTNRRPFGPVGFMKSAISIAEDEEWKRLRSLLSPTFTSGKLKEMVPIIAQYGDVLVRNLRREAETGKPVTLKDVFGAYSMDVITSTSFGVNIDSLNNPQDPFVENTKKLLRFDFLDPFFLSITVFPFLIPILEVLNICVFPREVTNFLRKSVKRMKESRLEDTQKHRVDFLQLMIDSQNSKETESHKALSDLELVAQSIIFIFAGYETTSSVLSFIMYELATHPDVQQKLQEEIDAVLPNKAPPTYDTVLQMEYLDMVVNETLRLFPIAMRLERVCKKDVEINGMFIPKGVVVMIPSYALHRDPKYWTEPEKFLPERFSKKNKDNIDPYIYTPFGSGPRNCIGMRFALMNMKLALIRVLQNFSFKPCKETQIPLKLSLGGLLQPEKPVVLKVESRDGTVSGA
human liver microsomes (HLMs), sequence (P08684 2-503): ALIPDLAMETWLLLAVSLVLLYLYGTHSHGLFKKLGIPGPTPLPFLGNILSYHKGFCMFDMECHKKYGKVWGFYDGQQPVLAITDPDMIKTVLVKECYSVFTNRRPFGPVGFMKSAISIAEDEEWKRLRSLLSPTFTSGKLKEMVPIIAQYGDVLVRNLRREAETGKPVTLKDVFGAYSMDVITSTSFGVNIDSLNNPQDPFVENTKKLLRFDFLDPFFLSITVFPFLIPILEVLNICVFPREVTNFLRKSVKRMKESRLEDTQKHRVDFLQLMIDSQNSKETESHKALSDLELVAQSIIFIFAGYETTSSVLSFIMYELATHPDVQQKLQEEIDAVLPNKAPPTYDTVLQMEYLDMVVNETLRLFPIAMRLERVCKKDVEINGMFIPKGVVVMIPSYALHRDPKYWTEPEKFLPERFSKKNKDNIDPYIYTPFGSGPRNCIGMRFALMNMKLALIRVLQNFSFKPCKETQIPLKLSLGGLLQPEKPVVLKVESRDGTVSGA
macitentan metabolism (formation of ACT-132577) (Homo sapiens, UniProt P08684), sequence (P08684 2-503): as above

Cmax ([1]; control group): 1340 ng/mL | Tmax ([1]; control group): 1.92 ± 0.8 h | AUC(0-inf) [1, 13]: 7900 ng·h/mL | AUC(0-t) [1, 13]: 7870 ng·h/mL | CL/F ([1]; control group): 43.3 mL/min/kg | MRT last ([1]; control group): 5.48 ± 0.96 h | MRT inf ([1]; control group): 5.6 ± 1.08 h | half-life ([1]; control group): 4.53 ± 0.9 h | AUC(0-inf) [1, 14]: 20400 ng·h/mL | AUC(0-t) [1, 14]: 20300 ng·h/mL | Cmax [1, 14]: 3000 ng/mL | Tmax [1, 14]: 2.5 ± 0.55 h | CL/F [1, 14]: 17.8 mL/min/kg | MRT last [1, 14]: 5.91 ± 0.74 h | MRT inf [1, 14]: 6.12 ± 0.8 h | half-life [1, 14]: 5.07 ± 1.15 h | CLz/F decreased by, experimental vs control group ([1]; with BP 10 mg/kg vs without): 0.59 fold | AUC(0-t) enhanced by, experimental vs control group [1, 15]: 1.57 fold | AUC(0-∞) enhanced by, experimental vs control group [1, 15]: 1.58 fold | Cmax enhanced by, experimental vs control group [1, 15]: 1.24 fold | Stability RE (%) ([4]; 4°C, 24 h, 4 ng/mL): 107.57% | Stability RE (%) ([4]; 4°C, 24 h, 160 ng/mL): 104.86% | Stability RE (%) ([4]; 4°C, 24 h, 1,600 ng/mL): 106.50% | Stability RE (%) ([4]; Room temperature, 6 h, 4 ng/mL): 113.51% | Stability RE (%) ([4]; Room temperature, 6 h, 160 ng/mL): 109.43% | Stability RE (%) ([4]; Room temperature, 6 h, 1,600 ng/mL): 105.63% | Stability RE (%) ([4]; −80°C, 7days, 4 ng/mL): 104.39% | Stability RE (%) ([4]; −80°C, 7days, 160 ng/mL): 103.80% | Stability RE (%) ([4]; −80°C, 7days, 1,600 ng/mL): 105.44% | Km at 30 min [5]: 4.82 µM
SMILES: CCCNS(=O)(=O)Nc1ncnc(OCCOc2ncc(Br)cn2)c1-c1ccc(Br)cc1 [macitentan]
Exposure reduction in the presence of rifampin ([2]; ref Bruderer et al, 2012b): four-fold | Exposure reduced to, coadministered with St. John’s Wort ([2]; ref Huppertz et al, 2018): approximately half | Exposure increase in the presence of ketoconazole [2, 16]: approximately two-fold | oral bioavailability [3]: 74% | Vmax of macitentan metabolism [6]: 0.50 nmol/min/mg protein

SMILES: COc1c2ccoc2cc2oc(=O)ccc12 [BP, 5-methoxypsoralen]
Cmax [7]: around 447.72 ± 30.61 ng/mL | Inhibition mechanism (Lineweaver-Burk) ([8]; rCYP3A4): competitive inhibition | IC50 ([8]; rCYP3A4 0.13 mg/mL, 30 min, 37°C, read-out: IC50 of BP on macitentan metabolism): 12.8 µM | Ki ([8]; read-out: Ki of BP on macitentan metabolism): 5.06 µM | IC50 at 30 min [9]: 17.8 µM | Inhibition mechanism (Lineweaver-Burk) ([10]; HLMs): competitive inhibition | Ki ([10]; human, microsomes): 0.12 µM | Inhibition mechanism (Lineweaver-Burk) [6]: competitive inhibition | Ki ([6]; competitive inhibition, read-out: Ki of BP on macitentan metabolism): 1.39 µM | IC50 at 30 min [11]: 3.84 µM | Cmax [12]: ~2100 nM

SMILES: CCCNS(=O)(=O)Nc1ncnc(OCC(=O)O)c1-c1ccc(Br)cc1 [ACT-373898]
Pharmacological activity of metabolite (ET receptor): Inactive

Difference in pharmacokinetic parameters, experimental vs control group ([1]; with BP 10 mg/kg vs without, p > 0.05): no significant differences | Stability RE (%) ([4]; 4°C, 24 h, 30 ng/mL): 106.81% | Stability RE (%) ([4]; 4°C, 24 h, 900 ng/mL): 104.77% | Stability RE (%) ([4]; 4°C, 24 h, 9000 ng/mL): 105.28% | Stability RE (%) ([4]; Room temperature, 6 h, 30 ng/mL): 109.84% | Stability RE (%) ([4]; Room temperature, 6 h, 900 ng/mL): 106.18% | Stability RE (%) ([4]; Room temperature, 6 h, 9000 ng/mL): 107.44% | Stability RE (%) ([4]; −80°C, 7days, 30 ng/mL): 105.76% | Stability RE (%) ([4]; −80°C, 7days, 900 ng/mL): 107.26% | Stability RE (%) ([4]; −80°C, 7days, 9000 ng/mL): 103.40%
SMILES: NS(=O)(=O)Nc1ncnc(OCCOc2ncc(Br)cn2)c1-c1ccc(Br)cc1 [ACT-132577]
Change in exposure in the presence of rifampin ([2]; ref Bruderer et al, 2012b): no significant change | Concentrations when macitentan coadministered with St. John’s Wort ([2]; ref Huppertz et al, 2018): unaltered | Exposure decrease in the presence of ketoconazole [2, 16]: 26% | Pharmacological activity of metabolite (ET receptor): Active | Potency relative to macitentan (less potent) (ET receptor; antagonism of the ET receptor): approximately five-fold
